Measurements as given in PubChem BioAssay AID540268 (Broad Institute, 2011).
Active and inactive are the calls of the source. How the calls were made is not given here.

assay: reduced viability of parasite-Hsp90 expressing yeast – ATP luminescence, 48 h, cherry-picked samples, anti-malarial Hsp90 inhibitor project, dose response (AID 540268); settings: yeast expressing the parasite Hsp90, ATP luminescence;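 on activity change, negative = inhibition: 0% = neutral control wells and -100% = positive control wells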

SMILES | AC50
Cc1ccc(S(=O)(=O)c2ccc([N+](=O)[O-])cn2)cc1 | 3.87 µM
O=C1Nc2ccc(Br)cc2/C1=C/C1CC=CCC1 (stereo unspecified) | 8.99 µM
Cc1nn2c(NCc3ccccn3)cc(C(C)(C)C)nc2c1-c1ccccc1 | 3.02 µM
O=C(NNc1nc2ccc(Cl)cc2s1)c1cc(-c2cccs2)nc2ccccc12 | 1.49 µM
Cc1ccc(S(=O)(=O)NCC23C=CC(O2)C2C(=O)N(c4ccccc4)C(=O)C23)cc1 (stereo unspecified) | 4.8 µM
CC(NC(=O)c1ccc(Br)cc1)c1ccc2c(c1)CCCC2 (stereo unspecified) | 1.37 µM
CC(C)N1CCN(c2ccc(OC[C@H]3CO[C@](Cn4cncn4)(c4ccc(Cl)cc4Cl)O3)cc2)CC1 | 1.5 µM
O=[N+]([O-])c1ccc(N2N=C(c3ccccc3)CC2c2ccccc2O)cc1 (stereo unspecified) | 3.91 µM
O=C1NC(=S)NC(=O)C1=Cc1ccc(Br)s1 | 4.48 µM
CCN(CC)C1CC(=O)N(c2cccc(Cl)c2)C1=O (stereo unspecified) | 0.97 µM
Cc1c(Cl)cccc1N=Cc1ccc([N+](=O)[O-])s1 | 8.3 µM
COC(=O)c1ccc(NC(=O)c2cn(-c3ccccc3)nc2-c2ccncc2)cc1 | 4.08 µM
COc1cc(N2C(=O)C=CC2=O)c(OC)cc1Cl | 1.77 µM
Cc1c(C(=O)N(Cc2ccccc2)Cc2cccs2)cnn1-c1ccc(Cl)cc1 | 5.05 µM
COc1cccc(-c2nc(NC3CCCC3)c3ccccc3n2)c1O | 4.23 µM
Cc1ccc(C(c2cc(Cl)c3cccnc3c2O)N2CCN(C)CC2)cc1 (stereo unspecified) | 0.507 µM
Cc1ccc(O)c(-c2cc(-c3cccc(Br)c3)n[nH]2)c1 | 4.38 µM
Cc1c(C(=O)NCCSCc2cccc(C(F)(F)F)c2)cnn1-c1ccc(Cl)cc1 | 8.59 µM
C[CH2][Hg][S]c1ccccc1C(=O)O | 4.9 µM
Cc1cccc(C)c1NC(=O)C(Cl)C(=O)c1ccccc1 (stereo unspecified) | 1.11 µM
Cc1cccc(C(=O)NC(=S)NNC(=O)Cc2ccccc2)c1 | 4.34 µM
Cc1ccc(C(C)C)c(OCc2ccc(C(=O)N/N=C/c3cccc(O)c3O)cc2)c1 | 1.62 µM
Cc1ccccc1CS(=O)(=O)c1ncc(Cl)c(C(=O)Nc2ccc(F)cc2)n1 | 4.06 µM
O=C(NCC1CCCO1)c1cc([N+](=O)[O-])ccc1N1CCC(Cc2ccccc2)CC1 (stereo unspecified) | 4.06 µM
O=[N+]([O-])c1c(Nc2ccccn2)cc(Cl)c2nonc12 | 0.803 µM
O=C(CSCC(=O)N1CCCCC1)Nc1nc(-c2ccc(Cl)s2)cs1 | 4.76 µM

SMILES | AC50
Cc1cc(C)c2c(N=NN3CCCCC3)[nH]nc2n1 | 4.73 µM
Cc1ccc(/C=C/C(=O)c2ccccc(=O)c2O)c(C)c1 | 1.93 µM
Cc1cc(C)cc(N2C(=O)C=CC2=O)c1 | < 0.195 µM
COc1ccc(NC(=O)CCC(=O)N/N=C/c2ccc([N+](=O)[O-])s2)cc1 | 3.33 µM
Cc1c(CCCl)c(Cl)n2c(nc3ccccc32)c1C#N | 3.39 µM
Cc1ccc(OCc2n[nH]c(=S)n2C2CCCCC2)cc1 | 23.6 µM
Cc1ccc(C(=O)C(SC(C)(C)C)n2cncn2)cc1 (stereo unspecified) | 4.25 µM
O=C(c1ccc(Br)cc1)C(CN1CCOCC1)c1ccccc1 (stereo unspecified) | 2.91 µM
CCN(CC)N=Nc1[nH]nc2nc(C)cc(C)c12 | 4.33 µM
O=C(N/N=C/c1ccccn1)c1cc(-c2ccc(Cl)cc2)nc2ccccc12 | 8.57 µM
Cc1c(Cc2ccccc2)c(NCCN(C)C)n2c(nc3ccccc32)c1C#N | 0.701 µM
CN(C)/C=C/C(=O)c1ccc2noc(-c3ccccc3)c2c1 | 8.37 µM
O=C1C=CC(=O)N1c1ccc(OC(F)F)cc1 | 0.421 µM
CCOC(=O)/C(=C\c1cccnc1)C(=O)c1cc(C(C)=O)c(Nc2ccccc2)s1 | 3.93 µM
Clc1ccc(C(c2ccc(Cl)cc2)n2cc[n+](CC(OCc3ccc(Cl)cc3Cl)c3ccc(Cl)cc3Cl)c2)cc1 (stereo unspecified) | 5.47 µM
Cc1ccc(C(=O)c2no[n+]([O-])c2C(=O)c2ccc(C)cc2)cc1 | 2.03 µM
O=C(C#Cc1ccccc1)c1ccco1 | 1.95 µM
CCOc1cc(S(=O)(=O)NC2CCCCCC2)ccc1F | 5.56 µM
CCCC1COC(Cn2cncn2)(c2ccc(C)cc2)O1 (stereo unspecified) | 0.628 µM
O=C(O)c1ccc(N/N=C/c2ccc(-c3cccc(Cl)c3)o2)cc1 | 8.69 µM
CC(=O)N(C1=C(Cl)C(=O)c2ccccc2C1=O)C1CCCCC1 | < 0.195 µM
O=S(=O)(NC1CCCCCC1)c1ccc(Br)s1 | 3.13 µM
O=C(NNC1=C(C(=O)C(F)(F)F)CCC1)c1ccc(Cl)cc1 | 1.34 µM
CCN1/C(=C\c2ccc3ccccc3[n+]2CC)Sc2cc(C)ccc21 | 7.9 µM
COc1ccc(C(C#N)=C2C=CC(=NO)C=C2)cc1 | 4.56 µM

same assay, conditions: yeast expressing the parasite Hsp90, ATP luminescence, at 26 µM (top of the series)

SMILES | activity change, negative = inhibition
CCCCN1C(=O)/C(=C/C=C2\Oc3ccccc3N2CC)SC1=S | 32.9% (inactive)
O=C(N/N=C/c1ccc([N+](=O)[O-])o1)c1sc2ccccc2c1Cl | 18.4% (inactive)
Cc1cc(Br)c2c(c1)/C(=C/C(=O)c1cccs1)C(=O)N2 | -12.3% (inactive)
CCOC(=O)C1=C(Cc2ccc(Cl)cc2)C(=O)c2ccccc2C1=O | -104% (inactive)
CC1(C)N=C(SCC(=O)Nc2ccc(Cl)cc2Cl)C(c2ccccc2)=N1 | 20.1% (inactive)
